# Results from patent publication US20250115926A1, “DEREGULATED DHS AND TYRA ENZYMES OF GRASSES ENABLE EFFICIENT PRODUCTION OF BOTH TYROSINE AND PHENYLALANINE” (Wisconsin Alumni Research Foundation, priority 2023, published 2025).
# Tests used:
# [1] = target: T1, Brachypodium distachyon BdTyrA1, SEQ ID NO: 33, recombinant (Brachypodium distachyon, UniProt A0A2K2DMR9); assay: TyrA arogenate dehydrogenase kinetics and tyrosine inhibition (340 nm); type: biochemical
# T1 construct: from genomic DNA
# T1 sequence (A0A2K2DMR9 539-925): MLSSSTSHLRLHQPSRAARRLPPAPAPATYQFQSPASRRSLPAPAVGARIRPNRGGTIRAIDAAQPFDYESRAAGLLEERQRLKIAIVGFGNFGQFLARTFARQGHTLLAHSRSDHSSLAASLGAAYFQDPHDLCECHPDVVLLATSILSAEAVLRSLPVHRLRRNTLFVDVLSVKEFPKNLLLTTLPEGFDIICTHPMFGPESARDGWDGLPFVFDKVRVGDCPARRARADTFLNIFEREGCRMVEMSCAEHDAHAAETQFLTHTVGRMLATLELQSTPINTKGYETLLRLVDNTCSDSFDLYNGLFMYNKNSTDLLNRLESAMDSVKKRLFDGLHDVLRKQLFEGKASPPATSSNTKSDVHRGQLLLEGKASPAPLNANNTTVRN
# Description: (§1) Next, to study the biochemical properties of grass TyrA enzymes, we generated and characterized recombinant purified TyrA proteins from Brachypodium (BdTyrA) and Sorghum (SbTyrA), two distantly related grass species^43, 44. Whereas TyrA enzymes from dicot plants are generally NADP^+-dependent arogenate dehydrogenases^20, 39, 45, except for NADP^+-prephenate dehydrogenases in the legume family^40, 46, previous reports on the substrate preference of grass TyrA enzymes are inconclusive^17, 19. […] NAD^+-prephenate dehydrogenase activity was absent in all cases, ruling out a significant contamination of the enzyme preparations with the TyrA enzyme from E. coli^47.48.
# [2] = target: T2, Brachypodium distachyon BdTyrAnc (non-canonical TyrA), SEQ ID NO: 37, recombinant (Brachypodium distachyon, UniProt I1GYB3); assay: as above; type: biochemical
# T2 construct: from cDNA
# T2 sequence (I1GYB3 58-361): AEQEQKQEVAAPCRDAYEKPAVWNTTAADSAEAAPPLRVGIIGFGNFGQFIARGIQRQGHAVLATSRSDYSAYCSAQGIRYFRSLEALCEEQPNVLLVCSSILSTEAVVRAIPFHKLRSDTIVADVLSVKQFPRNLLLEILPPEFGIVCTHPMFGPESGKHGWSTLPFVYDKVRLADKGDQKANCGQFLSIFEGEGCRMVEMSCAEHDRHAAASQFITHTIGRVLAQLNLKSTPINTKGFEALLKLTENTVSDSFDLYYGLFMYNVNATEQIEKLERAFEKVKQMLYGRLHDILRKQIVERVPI
# Description: as §1
# [3] = target: T3, Sorghum bicolor SbTyrA1, SEQ ID NO: 39, recombinant (Sorghum bicolor, UniProt A0A194YLK4); assay: as above; type: biochemical
# T3 construct: from genomic DNA
# T3 sequence (A0A194YLK4 475-836): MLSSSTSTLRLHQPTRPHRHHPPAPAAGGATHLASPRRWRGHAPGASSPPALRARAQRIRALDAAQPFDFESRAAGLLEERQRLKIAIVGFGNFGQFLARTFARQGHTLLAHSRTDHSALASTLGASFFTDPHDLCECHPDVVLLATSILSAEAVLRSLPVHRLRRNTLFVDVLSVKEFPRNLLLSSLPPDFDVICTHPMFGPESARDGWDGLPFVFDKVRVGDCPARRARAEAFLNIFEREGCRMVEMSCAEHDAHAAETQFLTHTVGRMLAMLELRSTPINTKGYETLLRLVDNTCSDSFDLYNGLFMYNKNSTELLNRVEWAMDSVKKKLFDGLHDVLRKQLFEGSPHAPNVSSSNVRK
# Description: as §1
# [4] = target: T4, Sorghum bicolor SbTyrA2, SEQ ID NO: 41, recombinant (Sorghum bicolor, UniProt C5Z9D2); assay: as above; type: biochemical
# T4 construct: from genomic DNA
# T4 sequence (C5Z9D2 53-389): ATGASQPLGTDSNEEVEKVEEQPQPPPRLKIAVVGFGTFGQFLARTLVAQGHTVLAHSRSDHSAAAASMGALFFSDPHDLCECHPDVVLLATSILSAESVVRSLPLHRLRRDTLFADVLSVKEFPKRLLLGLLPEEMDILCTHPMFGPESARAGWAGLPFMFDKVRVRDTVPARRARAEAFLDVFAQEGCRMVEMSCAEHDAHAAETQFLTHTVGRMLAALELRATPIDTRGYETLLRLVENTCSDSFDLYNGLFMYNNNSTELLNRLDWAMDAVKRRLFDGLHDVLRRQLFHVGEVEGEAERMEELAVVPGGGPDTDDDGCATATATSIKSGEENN
# Description: as §1
# [5] = target: Brachypodium distachyon BdDHS1a, SEQ ID NO: 1, recombinant (Brachypodium distachyon, UniProt I1GSB3); assay: DHS activity: kinetics and effector inhibition; conditions: read-out: inhibition at 0.5 mM
# Brachypodium distachyon BdDHS1a, SEQ ID NO: 1, recombinant, sequence (I1GSB3 46-537): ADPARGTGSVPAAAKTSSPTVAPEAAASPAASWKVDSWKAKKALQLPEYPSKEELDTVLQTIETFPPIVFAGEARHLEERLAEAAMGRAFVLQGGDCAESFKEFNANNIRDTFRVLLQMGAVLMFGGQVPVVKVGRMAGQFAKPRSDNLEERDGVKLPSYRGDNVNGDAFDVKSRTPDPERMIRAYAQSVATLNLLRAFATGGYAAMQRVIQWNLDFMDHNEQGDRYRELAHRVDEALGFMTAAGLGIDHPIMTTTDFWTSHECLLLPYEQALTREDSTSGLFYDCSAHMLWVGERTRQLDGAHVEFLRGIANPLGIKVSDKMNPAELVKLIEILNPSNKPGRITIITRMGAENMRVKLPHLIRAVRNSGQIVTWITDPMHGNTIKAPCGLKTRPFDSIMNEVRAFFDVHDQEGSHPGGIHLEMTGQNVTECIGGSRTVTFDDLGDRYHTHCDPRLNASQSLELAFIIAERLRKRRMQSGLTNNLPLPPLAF
# Description: To examine their functional properties, the recombinant DHS enzymes of Brachypodium were produced and characterized in vitro.
# (§2) As recent studies have shown that plant DHS enzymes are feedback-inhibited by multiple effector molecules^15, 16, we tested the effect of AAAs and another 14 related metabolites, including various intermediates of the shikimate pathway and the pathways downstream of AAAs, on Brachypodium DHS enzymes.
# (§3) The DHS assay for UHPLC-MS quantification was set up using the same settings as described in the previous paragraph for the UV-based DHS assay, which guaranteed at least 10 minutes of reaction linearity. After a 10-minute incubation, 20 μL of the reactions (out of a total volume of 50 μL) were mixed into 80 μL of methanol, vortexed and transferred to vials for injection. Analysis of DAHP by UHPLC-MS was conducted using the same chromatographic settings as described for the UHPLC-MS analysis of soluble metabolites and compared with an authentic DAHP standard (Sta. Cruz biotechnology, cat. no. sc-216432).
# [6] = tested on: recombinant Sorghum DHS enzymes; assay: DHS activity: effector inhibition; type: biochemical, Sorghum bicolor; conditions: 0.5 mM (FIG. 17)
# Method: In contrast, BdDHS1b was not inhibited by arogenate even up to 2.5 mM. In fact, DHS1b activity increased in the presence of high concentrations of arogenate (FIG. 4F), likely due to high concentrations of contaminant NaCl present in the arogenate preparation (FIG. 16). Under acidic conditions, arogenate is known to undergo a spontaneous dehydration and decarboxylation into […]. […] Like in Brachypodium DHS enzymes, 0.5 mM arogenate inhibited SbDHS1a and SbDHS2 at ˜50% and ˜40%, respectively, but had no effect on SbDHS1b.
# grass DHS enzymes = assay: DHS activity: effector inhibition; type: biochemical; conditions: 0.5 mM (FIGS. 4, 15, 17)
# Method: as §2, §3
# [7] = IC50 (tyrosine), 0.5 mM arogenate, 1 mM NADP^+
structure (smiles),measurement,setting,value
N[C@@H](Cc1ccc(O)cc1)C(=O)O [tyrosine],Ki,[1],46 ± 3 µM
same,activity at 200 μM of tyrosine,[1]; 200 μM tyrosine,fully inactive
same,mode of feedback inhibition by tyrosine,[1]; FIG. 12,competitive
same,IC50,[1]; [7],66 ± 2 µM
same,IC50,[2]; [7],242 ± 45 µM
same,Ki,"[2]; calculated from Km and IC50, competitive inhibition model",64 ± 25 µM
same,activity at 200 µM,[2]; read-out: activity retained at 200 μM of tyrosine,> 50%
same,mode of inhibition by tyrosine,[2]; with respect to arogenate,competitive with arogenate
same,IC50,[3],71 µM
same,Ki,[3],53 ± 10 µM
same,IC50,[4],47 ± 23 µM
same,Ki,[4],36 ± 13 µM
same,inhibition at 500 µM,[5],~25%
same,inhibition at 0.5 mM,[6],no strong inhibition
same,effect on grass DHS at 0.5 mM,grass DHS enzymes,little effect
